# Laboratory results taken from patent US20160022772A1, “Cytokine Receptors as Targets for Hypertension Therapy and Methods of Use” (Duke University, priority 2014, published 2016).
# “Also recorded” adds a separate entry of the source.
# Assays:
# [1] = test system: wild-type mice in AngII-dependent hypertension model; test: Ang II-dependent hypertension model, blood pressure by radiotelemetry; type: in vivo
# Experimental: To study the role of IL-1 receptor (IL-1 R) activation in hypertension, uni-nephrectomized IL-1 R-deficient(IL-1R KO) and wild-type (WT) mice was chronically infused with angiotensin II (Ang II; 1000 ng/kg/min) for 4 weeks using an implanted osmotic mini-pump after measurement of baseline blood pressures. Chronic angiotensin II infusion in rodents is a widely accepted model of hypertension that leads to the same complications in rodents as those seen in humans including cardiac hypertrophy and kidney damage. Unilateral nephrectomy renders the remaining kidney more susceptible to injury in this hypertension model. In the experiments of the disclosure baseline mean arterial pressures (MAPs) were similar between groups.
# In the present disclosure, Anakinra was administered at 50 mg/kg/day IP to wild-type mice in AngII-dependent hypertension model.
# FIG. 3B illustrates the effect of treatment with 50 mg/kg/day IP once daily beginning 3 days prior to and continuing throughout the Ang II infusion period.
# Uni-nephrectomized IL-1 R-deficient(IL-1R KO) and wild-type (WT) mice was chronically infused with (1000 ng/kg/min) for 4 weeks using an implanted osmotic mini-pump after measurement of baseline blood pressures. […] Blood pressure was monitored continuously using radiotelemetry.
# Ang II-infused mice = test: Target organ damage (cardiac hypertrophy, albuminuria) in Ang II-induced hypertension; type: in vivo; conditions: Ang II-infused mice treated with anakinra
# Experimental: For example, the Ang 11-infused IL-1 R KO mice had less cardiac hypertrophy than WJ mice as measured by heart weight/body weight ratios (7.5±0.9 vs. 9.3±0.8 mg/g, p<0.001). Loss of albumin in the urine is a marker for kidney glomerular damage in humans, and Ang 11-infused IL-1 R KO mice had nearly 40% less in albuminuria than Ang 11-infused WT animals (5.90±0.93 vs. 9.38±1.43 mg/mg Cr; p=0.05). […] Thus, the lower blood pressures in IL-1 receptor-deficient mice led to reduced hypertensive damage to the heart and kidney.
# Uni-nephrectomized IL-1 R-deficient(IL-1R KO) and wild-type (WT) mice was chronically infused with (1000 ng/kg/min) for 4 weeks using an implanted osmotic mini-pump after measurement of baseline blood pressures. The mice were then treated with vehicle or anakinra (50 mg/kg/day IP) once daily beginning 3 days prior to and continuing throughout the Ang II infusion period (FIG. 3). Blood pressure was monitored continuously using radiotelemetry.
# Next, levels of albuminuria, which is a marker for kidney damage, were measured in Ang II-infused IL-1R Kos and wild type mice. It was observed that the levels of albuminuria were reduced by 37% in the IL1R KO mice vs. the wild type: 5899±929 vs. 9380±1423, n=9,10, p=0.052 (37.1% reduction); for 24 hour albuminuria, 3574 vs. 5082, p=0.0810 (30.4% reduction).
# [2] = test system: patients with rheumatic diseases; conditions: in vivo; cited from earlier work
# NO generation = test: Blockade of NO generation with L-NAME in Ang II-infused WT and IL-1R KO mice, blood pressure; type: in vivo; conditions: L-NAME in drinking water from day 7 of Ang II, by day 14
# From the text: Because IL-1 is secreted by macrophages, macrophage infiltration into the kidneys of the experimental animals was examined. After 4 weeks of hypertension, IL-1R KO kidneys contained more F4/80+ macrophages than WTs (18±1 vs. 14±2 per HPF; p=0.03). […] In turn, the KO group had enhanced renal mRNA expression of the NO-generating enzyme iNOS (1.7±0.3 vs. 1.0±0.2 au; p<0.05) and higher excretion of NO metabolites vs. WTs (152±46 vs. 60±15 nmol/mg Cr; p=0.05). NO inhibits renal sodium (Na) reabsorption, and during the 2″d wk of Ang II infusion when WT and KO BPs separated, only the KOs entered negative Na balance (−16.8±16.8 vs. WT 34.8±7.5 1-Jmol/day, p=0.01). To confirm that preserved NO bioavailability in the Ang 11-infused KOs led to their lower BP vs. WTs, we blocked NO generation in the groups with L-NAME starting on day 7 of Ang II when the WT and KO BPs were 179±3 vs. 165±6 mm Hg (p<0.01). By day 14, BPs converged (186±5 vs. 185±8; p=NS), (FIG. 2.) As NO is known to inhibit the NKCC2 sodium transporter in the kidney, NKCC2 activity at day 10 of Ang II was measured by quantitating urine sodium to creatinine ratios (UNa/UCr) 3 hours after an IP injection of saline with or without furosemide. […] Thus, reduced NKCC2 activity in the IL-1 R KOs protects them from Ang 11-induced sodium retention. […]
# NKCC2 = NKCC2 activity: 3-hour urine sodium to creatinine ratio after acute IP furosemide challenge at day 10 of Ang II; type: in vivo, mice; conditions: for urine sodium to creatinine ratio: 3-hour sodium excretion after IP furosemide
# From the text: Because IL-1 is secreted by macrophages, macrophage infiltration into the kidneys of the experimental animals was examined. After 4 weeks of hypertension, IL-1R KO kidneys contained more F4/80+ macrophages than WTs (18±1 vs. 14±2 per HPF; p=0.03). […] In turn, the KO group had enhanced renal mRNA expression of the NO-generating enzyme iNOS (1.7±0.3 vs. 1.0±0.2 au; p<0.05) and higher excretion of NO metabolites vs. WTs (152±46 vs. 60±15 nmol/mg Cr; p=0.05). NO inhibits renal sodium (Na) reabsorption, and during the 2″d wk of Ang II infusion when WT and KO BPs separated, only the KOs entered negative Na balance (−16.8±16.8 vs. WT 34.8±7.5 1-Jmol/day, p=0.01). To confirm that preserved NO bioavailability in the Ang 11-infused KOs led to their lower BP vs. WTs, we blocked NO generation in the groups with L-NAME starting on day 7 of Ang II when the WT and KO BPs were 179±3 vs. 165±6 mm Hg (p<0.01). By day 14, BPs converged (186±5 vs. 185±8; p=NS), (FIG. 2.) As NO is known to inhibit the NKCC2 sodium transporter in the kidney, NKCC2 activity at day 10 of Ang II was measured by quantitating urine sodium to creatinine ratios (UNa/UCr) 3 hours after an IP injection of saline with or without furosemide. […] Thus, reduced NKCC2 activity in the IL-1 R KOs protects them from Ang 11-induced sodium retention.
# Therefore, to examine NKCC2 activity in the groups at day 10 of Ang II when the differences in sodium excretion was noted, 3-hour sodium excretion was quantitated in response to an acute intraperitoneal (IP) furosemide challenge (FIG. 8). In response to IP saline injection alone, the IL-1RKO mice had exaggerated urine sodium to creatinine ratios, consistent with their enhanced natriuresis in original balance study (237±38 vs. 120±9%; p=0.016). […] Without being bound by a particular theory, it is believed that IL-1 receptor activation stimulates renal sodium reabsorption via NKCC2-mediated sodium transport during Ang II-dependent HTN.
compound,measurement,setting,value
"Anakinra: recombinant, nonglycosylated form of the human interleukin-1 receptor antagonist (IL-1Ra) with an added N-terminal methionine, 153 amino acids",ability to limit blood pressure elevation / protection from hypertension,"[1]; 50 mg/kg/day IP once daily, during Ang II infusion (1000 ng/kg/min)",as robust as genetic deletion of the receptor; also recorded: as profound as that seen in the IL-1R KO mice
same,effect on baseline blood pressure,"[1]; 50 mg/kg/day IP, before Ang II infusion (Pre)",no impact; also recorded: no effect
same,decrease in cardiac hypertrophy,Ang II-infused mice; FIG. 9A,as profound as that seen in the IL-1R KO mice
same,decrease in albuminuria,Ang II-infused mice; FIG. 9B,as profound as that seen in the IL-1R KO mice
same,hypotension in clinical trials,[2],lack of hypotension
"COC(=O)[C@@H](N)CCCNC(=N)N[N+](=O)[O-] [L-NAME, L-Nitroarginine Methyl Ester]",blood pressure following L-NAME treatment,NO generation; IL-1R KO mice,185±8 mm Hg
same,blood pressure following L-NAME treatment,NO generation; WT mice,186±5 mm Hg
NS(=O)(=O)c1cc(C(=O)O)c(NCc2ccco2)cc1Cl [furosemide],urine sodium to creatinine ratio,NKCC2; IL-1R KO mice,481±103%
same,urine sodium to creatinine ratio,NKCC2; WT mice,453±56%
same,urine sodium to creatinine ratio (UNa/UCr),"NKCC2; WT mice, 3 hours after IP furosemide",453±60 mmollmmol
